Laboratory results: PubChem BioAssay AID1918944 (Molecular Pharmacology Branch, DTP, NCI, 2023)
pIC50: −log10 of the molar value. Values joined by “and” are separate entries in the source; they are usually repeats but may differ in a detail not shown here. Identical values can stand only once.

Test system: 786-0 complex spheroid viability
Assay: Anticancer human tumor 786-0 cell line growth inhibition;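 note: spheroids exposed to agents for seven days before readout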
Conditions: for viability, T/C: stronger effect = lower value; active = viability on the fitted dose curve at most 10% of control; inactive = the rest
Source text: Multicellular complex tumor spheroid response to LSD1 Inhibitor Iadademstat in combination with a variety of drugs and investigational agents in selected tumor cell lines
The current study was undertaken to assess response to LSD1 inhibitors in combination with standard-of-care drugs and investigational agents in solid tumor complex spheroid models as well as in the K-562 leukemia. Complex spheroids include a stromal component modeled by human endothelial cells (HUVEC) and fibroblasts modeled by human mesenchymal stem cells (MSCs). The concentration ranges selected for each drug and investigational agent were based upon clinically achievable concentrations if the clinical Cmax of the agent was known.
Compounds. The drugs and investigational agents used in this study are listed on Table 1. All of the agents used, including staurosporine (NSC755774) and gemcitabine (NSC613327), were obtained from the Developmental Therapeutics Program, NCI. FDA-approved anticancer drugs are available from the NCI at http://dtp.nci.nih.gov/branches/dscb/oncology_drugset_explanation.html. Drugs and investigational agents were >95% pure by proton nuclear magnetic resonance (NMR) and liquid chromatography/mass spectrometry (LC/MS). Stock solutions were prepared at 400x in DMSO, stored at -70 degrees C, and diluted in fresh medium prior to their use. The final concentration of DMSO in cell culture wells never exceeded 0.25% (v/v). The FDA-approved anticancer drug set is available from the Developmental Therapeutics Program at https://dtp.cancer.gov/organization/dscb/obtaining/available_plates.htm. All drugs and investigational agents were tested over a range starting from a high concentration at or near the clinical Cmax and decreasing in half-log increments. If the clinical Cmax for an agent had not been determined, the highest concentration tested was 10 microM.
Cell Lines. The patient-derived cancer cell (PDC) lines: 292921-168-R-J2-PDC, K24384-001-R-PDC, and 521955-158-R2-J5-PDC pancreatic carcinomas, 556581-035-R-J1 ovarian carcinoma, 324938-238-R-J1-PDC, 855422-203-R-J1-PDC and 883617-216-R-J1-PDC urothelial bladder carcinomas, 743489-274-T-PDC renal cell carcinoma, 138582-R-J1 Merkel cell tumor, K60290-347-R-J1 and K57222-313-R-J1-PDC glioblastomas, 653999-131-R-J2-PDC, LG0703-F948-PDC, and 349418-098-R-PDC non-small cell lung carcinomas, 885512-296-R-J2-PDC, 171881-019-R-J1-PDC breast carcinomas and 186277-243-T-J2-PDC and 233499-124-R-J2-PDC colon carcinomas were obtained from the NCI Patient-Derived Models Repository (PDMR, https://pdmr.cancer.gov). The established cell lines NCI/ADR-RES (RRID:CVCL_14520 and OVCAR-5 (RRID:CVCL_1628) ovarian carcinomas, 786-O (RRID:CVCL_1051) and A498 (RRID:CVCL_A498) renal cell carcinoma, NCI-H211 (ATCC, cat. CRL-5824; RRID:CVCL_1529), NCI-H196 (ATCC, cat. CRL-5823, RRID:CVCL_1509), SW 1271 (ATCC, cat. CRL-2177, RRID:CVCL_1716) and NCI-H1876 (ATCC, cat. CRL-5902, RRID:CVCL_1503) small cell lung carcinomas, MDA-MB-231 (RRID:CVCL_0062) and MDA-MB-468 (RRID:CVCL_0419)breast carcinomas (10-12). Pooled donor human umbilical vein endothelial cells (HUVEC, Lonza, cat. CC-2519) and human mesenchymal stem cells (hMSC, Lonza, cat. PT-2501) were purchased from Lonza (Walkersville, MD).
Cell Culture. All cells were maintained in an incubator at 37 degrees C and 5% CO2 with 95% humidity. The PDC lines were cultured according to standard operating procedures established by the NCI PDMR (https://pdmr.cancer.gov). Briefly all PDCs were thawed and cultured in Matrigel-coated flasks prepared with a working solution of 1X Ham's F-12 nutrient mix, without supplementation (Invitrogen, Waltham, MA, cat. 11765054), 100 U/mL penicillin-streptomycin (Invitrogen, cat. 15140122), and 2.5% Matrigel (Corning Inc., Corning, NY, cat. 354248) for the first three passages. […]

[1] = curve of first compound, second compound 0.1 µM
[2] = curve of first compound, second compound 0.316 µM
[3] = curve of first compound, second compound 1 µM
[4] = curve of first compound, second compound 3.16 µM
[5] = curve of first compound, second compound 10 µM
[6] = second compound 0.1 µM, first compound 0.0316 µM
[7] = second compound 0.1 µM, first compound 0.1 µM
[8] = second compound 0.1 µM, first compound 0.316 µM
[9] = second compound 0.1 µM, first compound 1 µM
[10] = second compound 0.1 µM, first compound 3.16 µM
[11] = second compound 0.1 µM, first compound 10 µM
[12] = second compound 0.316 µM, first compound 0.0316 µM
[13] = second compound 0.316 µM, first compound 0.1 µM
[14] = second compound 0.316 µM, first compound 0.316 µM
[15] = second compound 0.316 µM, first compound 1 µM
[16] = second compound 0.316 µM, first compound 3.16 µM
[17] = second compound 0.316 µM, first compound 10 µM
[18] = second compound 1 µM, first compound 0.0316 µM
[19] = second compound 1 µM, first compound 0.1 µM
[20] = second compound 1 µM, first compound 0.316 µM
[21] = second compound 1 µM, first compound 1 µM
[22] = second compound 1 µM, first compound 3.16 µM
[23] = second compound 1 µM, first compound 10 µM
[24] = second compound 3.16 µM, first compound 0.0316 µM
[25] = second compound 3.16 µM, first compound 0.1 µM
[26] = second compound 3.16 µM, first compound 0.316 µM
[27] = second compound 3.16 µM, first compound 1 µM
[28] = second compound 3.16 µM, first compound 3.16 µM
[29] = second compound 3.16 µM, first compound 10 µM
[30] = second compound 10 µM, first compound 0.0316 µM
[31] = second compound 10 µM, first compound 0.1 µM
[32] = second compound 10 µM, first compound 0.316 µM
[33] = second compound 10 µM, first compound 1 µM
[34] = second compound 10 µM, first compound 3.16 µM
[35] = second compound 10 µM, first compound 10 µM

Nc1ccccc1NC(=O)c1ccc(CNC(=O)OCc2cccnc2)cc1 + NC1CC1c1ccc(-c2cccc(O)c2)cc1
5.75: pIC50 [2]
inactive: viability, T/C (second compound 0.1 µM, first compound 0.00949 µM) 107% | viability, T/C (second compound 0.1 µM, first compound 0.03 µM) 108% | viability, T/C (second compound 0.1 µM, first compound 0.0949 µM) 97.8% | viability, T/C (second compound 0.1 µM, first compound 0.3 µM) 96.1% | viability, T/C (second compound 0.1 µM, first compound 0.949 µM) 66.3% | viability, T/C (second compound 0.1 µM, first compound 3 µM) 25.6% | viability, T/C (second compound 0.316 µM, first compound 0.00949 µM) 113% | viability, T/C (second compound 0.316 µM, first compound 0.03 µM) 110% | viability, T/C (second compound 0.316 µM, first compound 0.0949 µM) 112% | viability, T/C (second compound 0.316 µM, first compound 0.3 µM) 103% | viability, T/C (second compound 0.316 µM, first compound 0.949 µM) 78.8% | viability, T/C (second compound 0.316 µM, first compound 3 µM) 25.8% | viability, T/C (second compound 1 µM, first compound 0.00949 µM) 103% | viability, T/C (second compound 1 µM, first compound 0.03 µM) 114% | viability, T/C (second compound 1 µM, first compound 0.0949 µM) 110% | viability, T/C (second compound 1 µM, first compound 0.3 µM) 91.8% | viability, T/C (second compound 1 µM, first compound 0.949 µM) 71% | viability, T/C (second compound 1 µM, first compound 3 µM) 21.1% | viability, T/C (second compound 3.16 µM, first compound 0.00949 µM) 99.4% | viability, T/C (second compound 3.16 µM, first compound 0.03 µM) 102% | viability, T/C (second compound 3.16 µM, first compound 0.0949 µM) 98% | viability, T/C (second compound 3.16 µM, first compound 0.3 µM) 89.9% | viability, T/C (second compound 3.16 µM, first compound 0.949 µM) 64.3% | viability, T/C (second compound 3.16 µM, first compound 3 µM) 20.7% | viability, T/C (second compound 10 µM, first compound 0.00949 µM) 103% | viability, T/C (second compound 10 µM, first compound 0.03 µM) 101% | viability, T/C (second compound 10 µM, first compound 0.0949 µM) 97.9% | viability, T/C (second compound 10 µM, first compound 0.3 µM) 83.1% | viability, T/C (second compound 10 µM, first compound 0.949 µM) 67.2% | viability, T/C (second compound 10 µM, first compound 3 µM) 17.5%
5.86: pIC50 [4] | pIC50 [5]
5.82: pIC50 [1] | pIC50 [3]

CC(C)c1c(-c2ccccc2)nc2c(C#N)c[nH]n2c1=O + NC1CCC(NC2CC2c2ccccc2)CC1
inactive: viability, T/C [6] 110% | viability, T/C [7] 111% | viability, T/C [8] 119% | viability, T/C [9] 118% | viability, T/C [10] 116% | viability, T/C [11] 112% | viability, T/C [12] 121% | viability, T/C [13] 118% | viability, T/C [14] 118% | viability, T/C [15] 116% | viability, T/C [16] 115% | viability, T/C [17] 116% | viability, T/C [18] 114% | viability, T/C [19] 113% | viability, T/C [20] 113% | viability, T/C [21] 125% | viability, T/C [22] 112% | viability, T/C [23] 113% | viability, T/C [24] 111% | viability, T/C [25] 107% | viability, T/C [26] 108% | viability, T/C [27] 100% | viability, T/C [28] 107% | viability, T/C [29] 103% | viability, T/C [30] 92.7% | viability, T/C [31] 95.3% | viability, T/C [32] 95.2% | viability, T/C [33] 98.8% | viability, T/C [34] 88.1% | viability, T/C [35] 84.9%
< 5.00: pIC50 [1] | pIC50 [2] | pIC50 [3] | pIC50 [4] | pIC50 [5]

O=C(C=Cn1cnc(-c2cc(C(F)(F)F)cc(C(F)(F)F)c2)n1)NNc1cnccn1
7.73 and 7.56: pIC50 (curve of compound)
inactive: viability, T/C (compound 0.00316 µM) 90.7% and 92.3% | viability, T/C (compound 0.01 µM) 61.1% and 63.3% | viability, T/C (compound 0.0316 µM) 39.5% and 47.2% | viability, T/C (compound 0.1 µM) 29% and 39.9% | viability, T/C (compound 0.316 µM) 20.6% and 32.5% | viability, T/C (compound 1 µM) 15.3% and 25.6%

CC[C@@]1(O)C(=O)OCc2c1cc1n(c2=O)Cc2cc3c(CN(C)C)c(O)ccc3nc2-1
8.34 and 8.27: pIC50 (curve of compound)
active: viability, T/C (compound 0.0316 µM) 9.17% and 10.9% | viability, T/C (compound 0.1 µM) 4.15% and 4.08%
inactive: viability, T/C (compound 0.000316 µM) 103% and 99.7% | viability, T/C (compound 0.001 µM) 96.7% and 96.5% | viability, T/C (compound 0.00316 µM) 65.8% and 70.9% | viability, T/C (compound 0.01 µM) 15.6% and 24.7%

CC1(C)CCC(CN2CCN(c3ccc(C(=O)NS(=O)(=O)c4ccc(NCC5CCOCC5)c([N+](=O)[O-])c4)c(Oc4cnc5[nH]ccc5c4)c3)CC2)=C(c2ccc(Cl)cc2)C1 + NC1CC1c1ccc(-c2cccc(O)c2)cc1
inactive: viability, T/C [6] 119% | viability, T/C [7] 114% | viability, T/C [8] 115% | viability, T/C [9] 110% | viability, T/C [10] 103% | viability, T/C [11] 66.6% | viability, T/C [12] 105% | viability, T/C [13] 114% | viability, T/C [14] 106% | viability, T/C [15] 111% | viability, T/C [16] 100% | viability, T/C [17] 68.6% | viability, T/C [18] 113% | viability, T/C [19] 114% | viability, T/C [20] 106% | viability, T/C [21] 106% | viability, T/C [22] 96.3% | viability, T/C [23] 60.9% | viability, T/C [24] 105% | viability, T/C [25] 110% | viability, T/C [26] 106% | viability, T/C [27] 101% | viability, T/C [28] 93.3% | viability, T/C [29] 57.3% | viability, T/C [30] 102% | viability, T/C [31] 95.7% | viability, T/C [32] 103% | viability, T/C [33] 90.8% | viability, T/C [34] 81.6% | viability, T/C [35] 42.6%
5.09: pIC50 [5]
< 5.00: pIC50 [1] | pIC50 [2] | pIC50 [3] | pIC50 [4]
